Where two headings read alike, the source gives them in different places.
Assays:
hCRTH2 [1] = molecular target: T1, hCRTH2 (Homo sapiens, UniProt Q9Y5Y4); design: expressed in transfected cells; host or cells: HEK (human embryonic kidney) cell line expressing hCRTH2; settings: Radioligand Binding Assay B, 0.7 nM [3H]PGD2, HEK-hCRTH2 membranes; rated A-D
T1 sequence (Q9Y5Y4 1-395): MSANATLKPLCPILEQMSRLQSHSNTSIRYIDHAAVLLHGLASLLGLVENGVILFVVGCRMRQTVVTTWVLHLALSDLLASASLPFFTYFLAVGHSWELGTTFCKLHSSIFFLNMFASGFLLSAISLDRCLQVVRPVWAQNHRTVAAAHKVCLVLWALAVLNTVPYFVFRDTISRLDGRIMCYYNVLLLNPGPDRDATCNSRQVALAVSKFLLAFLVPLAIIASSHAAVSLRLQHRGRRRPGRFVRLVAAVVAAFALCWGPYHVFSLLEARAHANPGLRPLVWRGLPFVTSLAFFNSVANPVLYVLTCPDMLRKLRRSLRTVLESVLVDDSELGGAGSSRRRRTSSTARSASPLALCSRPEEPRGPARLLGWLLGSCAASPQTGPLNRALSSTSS
Experimental: Radioligand Binding Assay B.
Competing ligands were diluted in dimethylsulfoxide (Me2SO) that was kept constant at 1% (v/v) of the final incubation volume. The reaction was initiated by the addition of 8-20 μg of membrane protein prepared from a HEK-hCRTH2 cell line. Total and non-specific binding were determined in the absence and the presence of 10 μM PGD2, respectively. Under these conditions, specific binding (total minus non-specific) of the radioligand to the receptor reached equilibrium within 50 min and was stable up to 180 min. The reaction was routinely conducted for 60 min at room temperature and terminated by rapid filtration through prewetted Unifilters GF/C (Packard), using a Tomtec MachIII semi-automated harvester (for HEK-hCRTH2). The filters were then washed with 4 mL of the same buffer and residual radioligand bound to the filter was determined by liquid scintillation counting following equilibration in 25 μl Ultima Gold F™ (Unifilter) (Packard).

hCRTH2 [2] = molecular target: T1, hCRTH2; experiment: biochemical; settings: Radioligand Binding Assay A, 3.0 nM [3H]PGD2, HEK-hCRTH2 membranes
Experimental: Radioligand Binding Assay A.
Competing ligands were diluted in dimethylsulfoxide (Me2SO) that was kept constant at 1% (v/v) of the final incubation volume. The reaction was initiated by the addition of 8-20 μg of membrane protein prepared from a human embryonic kidney (HEK)-hCRTH2 cell line. Total and non-specific binding were determined in the absence and the presence of 10 μM PGD2, respectively. Under these conditions, specific binding (total minus non-specific) of the radioligand to the receptor reached equilibrium within 50 min and was stable up to 180 min. The reaction was routinely conducted for 60 min at room temperature and terminated by rapid filtration through prewetted (0.3% polyethyleneimine) 96-well printed Filtermate™ (Wallac) using a Tomtec® harvester (Hamden, Conn.). After washing with cold buffer, the filter was dried for 2 minutes in microwave, and Meltilex Scintillator sheet (Wallac) was melted on for 2 min.

Compound | Ki (hCRTH2 [1]) [nM] | Ki (hCRTH2 [2]) [nM]
O=C(O)CCC(=O)N(C1CC1)[C@@H]1c2ccc(F)cc2N(C(=O)c2ccccc2)[C@@H]2CCC[C@@H]21 (racemic) [16D, 4-{cyclopropyl[cis, cis-6-fluoro-4-(phenylcarbonyl)-2,3,3a,4,9,9a-hexahydro-1H-cyclopenta[b]quinolin-9-yl]amino}-4-oxobutanoic acid] | 20.1 to 200 | –
CCc1ccc(C(=O)N2c3cc(Cl)ccc3C(N(C(=O)CCC(=O)O)C3CCC3)C3CCCC32)cc1 (single isomer, unassigned) [17CQ, 4-[[cis, cis-6-chloro-4-(4-ethylbenzoyl)-2,3,3a,4,9,9a-hexahydro-1H-cyclopenta[b]quinolin-9-yl]cyclobutylamino]-4-oxobutanoic acid] | – | 2.4
